# Assay results from article PMC8214651, “Construction and characterization of a functional chimeric laccase from metagenomes suitable as a biocatalyst” (AMB Express, 2021).
# System: T1, Lcc120-3 (Mic-mg-MCO120-3)
# T1 construct: 98 residues Micromonospora sp; MP36 MCO N-terminus (parent WP_148798198.1) + 387-residue metagenomic core + 54 residues MP36 MCO C-terminus; MBP deleted; E. coli BL21(DE3)
# Assay: spectrophotometric oxidation at […] nm, Lineweaver-Burk plot
# Assay type: biochemical
# Conditions: 50 mM potassium phosphate pH 7.0, 30 °C, purified enzyme without MBP; read-out: Lcc120-3 (Mic-mg-MCO) / Km (mM)/Vmax (U/mg protein)/kcat (s^-1)
structure (smiles),measurement,value
"COc1cccc(OC)c1O [DMP, 2,6-dimethoxyphenol]",Km,10.5 mM
